These results are taken from patent publication US7902223B2, “Phenyl derivatives as factor XA inhibitors” (Merck Patent GmbH, priority 2001, dated 2011).

One test addresses FXa (Homo sapiens, UniProt P00742). In words: Factor Xa inhibition (FXa-IC50). In kind it is biochemical. An excerpt:
The inhibition of factor Xa by the compounds according to the invention and the measurement of the anticoagulant and antithrombotic activity can be determined by conventional in-vitro or in-vivo methods. A suitable method is described, for example, by J. Hauptmann et al. in Thrombosis and Haemostasis 1990, 63, 220-223.
The inhibition of factor Xa can be measured, for example, by the method of T. Hara et al. in Thromb. Haemostas. 1994, 71, 314-319.

In a further test the target is TF/FVIIa (Homo sapiens, UniProt P08709). Briefly: TF/factor VIIa inhibition (TF/FVIIa-IC50). It counts as biochemical. An excerpt:
The inhibition of factor VIIa by the compounds according to the invention and the measurement of the anticoagulant and antithrombotic activity can be determined by conventional in-vitro or in-vivo methods. A conventional method for the measurement of the inhibition of factor VIIa is described, for example, by H. F. Ronning et al. in Thrombosis Research 1996, 84, 73-81.

pIC50: −log10 of the molar value.

Sequence of FXa (P00742 235-488 limits assumed): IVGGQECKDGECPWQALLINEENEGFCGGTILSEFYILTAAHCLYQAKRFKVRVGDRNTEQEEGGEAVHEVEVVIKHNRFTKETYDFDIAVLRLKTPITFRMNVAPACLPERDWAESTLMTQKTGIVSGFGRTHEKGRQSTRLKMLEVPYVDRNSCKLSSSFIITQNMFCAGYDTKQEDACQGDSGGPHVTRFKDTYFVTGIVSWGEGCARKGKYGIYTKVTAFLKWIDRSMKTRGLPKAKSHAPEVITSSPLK
Sequence of FXa (P00742 41-179 limits assumed): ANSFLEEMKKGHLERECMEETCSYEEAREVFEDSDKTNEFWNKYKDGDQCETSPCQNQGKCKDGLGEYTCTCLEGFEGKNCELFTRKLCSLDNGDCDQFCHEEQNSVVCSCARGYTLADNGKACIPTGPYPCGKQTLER
Sequence of TF/FVIIa (P08709 213-466 limits assumed): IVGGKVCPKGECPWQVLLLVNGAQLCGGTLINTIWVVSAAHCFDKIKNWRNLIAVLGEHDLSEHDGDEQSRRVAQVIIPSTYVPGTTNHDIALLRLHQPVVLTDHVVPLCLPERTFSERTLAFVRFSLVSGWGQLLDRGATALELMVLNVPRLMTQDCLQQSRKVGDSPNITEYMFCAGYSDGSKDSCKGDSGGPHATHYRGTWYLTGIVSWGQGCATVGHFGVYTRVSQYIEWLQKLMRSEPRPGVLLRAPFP
Sequence of TF/FVIIa (P08709 61-212 limits assumed): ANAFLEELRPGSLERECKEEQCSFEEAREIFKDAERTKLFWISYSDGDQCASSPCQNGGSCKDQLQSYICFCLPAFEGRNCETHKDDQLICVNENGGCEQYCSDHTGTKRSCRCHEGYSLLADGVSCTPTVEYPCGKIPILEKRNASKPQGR
Sequence of TF/FVIIa (P13726 33-295 partner): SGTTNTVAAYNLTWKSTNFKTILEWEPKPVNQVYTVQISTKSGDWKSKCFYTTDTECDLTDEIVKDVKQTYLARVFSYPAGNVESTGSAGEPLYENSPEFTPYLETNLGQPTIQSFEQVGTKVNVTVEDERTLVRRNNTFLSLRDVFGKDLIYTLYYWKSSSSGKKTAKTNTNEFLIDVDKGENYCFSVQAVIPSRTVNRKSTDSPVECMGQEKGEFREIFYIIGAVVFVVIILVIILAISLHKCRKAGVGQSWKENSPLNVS

Consider `CCCC(Oc1ccc2ccnc(N)c2c1)C(=O)Nc1ccc(N2CCCCC2=O)cc1` (stereo not shown) [AA, N-[4-(2-Oxopiperidin-1-yl)phenyl]-2-(1-aminoisoquinolin-7-yloxy)-pentanamide], for which the pIC50 at FXa was 6.46; against TF/FVIIa, 6.66.
The like results for `Nc1nccc2ccc(OC(C(=O)Nc3ccc(N4CCCCC4=O)cc3)c3ccccc3)cc12` (stereo not shown) [AB, N-[4-(2-oxopiperidin-1-yl)phenyl]-2-(1-aminoisoquinolin-7-yloxy)-2-phenylacetamide] were, in that order, 6.46 and 6.70.

Broadly, the pIC50 is the negative decadic logarithm of the IC50, by convention in mol/L. A higher pIC50 goes with a low IC50.
